For one test, the target named is BTK (Homo sapiens (Human), UniProt Q06187). Briefly: in vitro kinase binding assay (Kd, phage-tagged kinase, qPCR). On the procedure:
(§1) An in vitro assay which determines the ability of a test compound to inhibit EGFR (L858R), EGFR (L858R,T790M) and BTK kinases.
(§2) Kinase-tagged T7 phage strains were prepared in an E. coli host derived from the BL21 strain. E. coli were grown to log-phase and infected with T7 phage and incubated with shaking at 32° C. until lysis. The lysates were centrifuged and filtered to remove cell debris. The remaining kinases were produced in HEK-293 cells and subsequently tagged with DNA for qPCR detection. Streptavidin-coated magnetic beads were treated with biotinylated small molecule ligands for 30 minutes at room temperature to generate affinity resins for kinase assays. The liganded beads were blocked with excess biotin and washed with blocking buffer (SeaBlock (Pierce), 1% BSA, 0.05% Tween 20, 1 mM DTT) to remove unbound ligand and to reduce non-specific binding. Binding reactions were assembled by combining kinases, liganded affinity beads, and test compounds in 1× binding buffer (20% SeaBlock, 0.17×PBS, 0.05% Tween 20, 6 mM DTT). All reactions were performed in polystyrene 96-well plates in a final volume of 0.135 ml. The assay plates were incubated at room temperature with shaking for 1 hour and the affinity beads were washed with wash buffer (1×PBS, 0.05% Tween 20). The beads were then re-suspended in elution buffer (lx PBS, 0.05% Tween 20, 0.5 μM non-biotinylated affinity ligand) and incubated at room temperature with shaking for 30 minutes. The kinase concentration in the eluates was measured by qPCR.
(§3) An 11-point 3-fold serial dilution of each test compound was prepared in 100% DMSO at 100× final test concentration and subsequently diluted to 1× in the assay (final DMSO concentration=1%). Kds were determined using a compound top concentration=10,000 nM. If the initial Kd determined was <0.5 nM (the lowest concentration tested), the measurement was repeated with a serial dilution starting at a lower top concentration.
(§4) Binding constants (Kds) were calculated with a standard dose-response curve using the Hill equation: Response=Background+(Signal−Background)/(1+(Kd^Hill Slope/Dose^Hill Slope)). The Hill Slope was set to −1. Curves were fitted using a non-linear least square fit with the Levenberg-Marquardt algorithm.

Another test deals with EGFR (L858R) (Homo sapiens (Human), UniProt P00533, L858R). Described as above. On the procedure: as §1, §2, §3, §4
The target of the next test is EGFR (L858R,T790M) (Homo sapiens (Human), UniProt P00533, L858R/T790M). Described as above. On the procedure:
as §1, §2, §3, §4

Test [1] concerns cancer cell line NCI-H1975. Kind of test: NCI-H1975 cell proliferation assay (MTT). In kind it is cell-based. Particulars: Homo sapiens, NCI-H1975 cells, 72 hours treatment. As to the method:
A representative number of compounds were assayed against cancer cell line NCI-H1975 using the cell proliferation assay:
1. 5×10^3 cells per well in 100 μl of medium were seeded in 96-well plate, here the medium contained 5% FBS
2. 24 hours later, 100 μl fresh medium was added with various concentrations of compounds into each well, while the medium here was free of FBS
3. After the cells were treated with compounds for 72 hours, 20 μl MTT (5 mg/ml) was added into each well, and then the assay plate was incubated at 37° C. for 4 more hours.
4. The assay plate was centrifuged at 800 g for 10 min. The medium was aspirated, 150 μl DMSO was added into each well. The plate was gently shaked for 10 min.
5. The absorbance at 570 nm was measured on the plate reader.

Molecules are shown by their SMILES. pIC50, pKd: −log10 of the molar value.

What is called pKd is the negative decadic logarithm of the Kd, by convention in mol/L. Read a low pKd as a large Kd. A word on the pIC50: it is the negative decadic logarithm of the IC50, by convention in mol/L. Low readings indicate a large IC50, high ones a small IC50.

Sequence of BTK (Q06187 whole entry): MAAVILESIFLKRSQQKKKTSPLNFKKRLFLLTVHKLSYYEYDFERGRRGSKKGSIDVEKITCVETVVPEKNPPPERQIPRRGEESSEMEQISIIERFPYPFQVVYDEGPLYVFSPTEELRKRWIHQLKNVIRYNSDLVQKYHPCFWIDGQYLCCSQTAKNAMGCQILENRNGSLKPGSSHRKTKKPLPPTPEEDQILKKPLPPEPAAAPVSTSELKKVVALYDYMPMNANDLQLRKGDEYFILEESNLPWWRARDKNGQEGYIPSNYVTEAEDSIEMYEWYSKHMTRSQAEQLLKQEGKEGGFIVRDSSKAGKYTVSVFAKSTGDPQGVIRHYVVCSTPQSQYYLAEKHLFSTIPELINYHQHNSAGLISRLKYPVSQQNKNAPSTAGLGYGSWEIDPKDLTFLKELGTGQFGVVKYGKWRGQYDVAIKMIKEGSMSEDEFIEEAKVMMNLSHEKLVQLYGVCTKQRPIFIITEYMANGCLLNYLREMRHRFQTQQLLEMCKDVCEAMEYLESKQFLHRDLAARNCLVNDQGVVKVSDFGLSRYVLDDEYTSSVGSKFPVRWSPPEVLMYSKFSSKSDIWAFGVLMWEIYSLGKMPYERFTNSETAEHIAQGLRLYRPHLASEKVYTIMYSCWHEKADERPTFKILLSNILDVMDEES
Sequence of EGFR (L858R,T790M) (P00533 25-1210 T790M/L858R): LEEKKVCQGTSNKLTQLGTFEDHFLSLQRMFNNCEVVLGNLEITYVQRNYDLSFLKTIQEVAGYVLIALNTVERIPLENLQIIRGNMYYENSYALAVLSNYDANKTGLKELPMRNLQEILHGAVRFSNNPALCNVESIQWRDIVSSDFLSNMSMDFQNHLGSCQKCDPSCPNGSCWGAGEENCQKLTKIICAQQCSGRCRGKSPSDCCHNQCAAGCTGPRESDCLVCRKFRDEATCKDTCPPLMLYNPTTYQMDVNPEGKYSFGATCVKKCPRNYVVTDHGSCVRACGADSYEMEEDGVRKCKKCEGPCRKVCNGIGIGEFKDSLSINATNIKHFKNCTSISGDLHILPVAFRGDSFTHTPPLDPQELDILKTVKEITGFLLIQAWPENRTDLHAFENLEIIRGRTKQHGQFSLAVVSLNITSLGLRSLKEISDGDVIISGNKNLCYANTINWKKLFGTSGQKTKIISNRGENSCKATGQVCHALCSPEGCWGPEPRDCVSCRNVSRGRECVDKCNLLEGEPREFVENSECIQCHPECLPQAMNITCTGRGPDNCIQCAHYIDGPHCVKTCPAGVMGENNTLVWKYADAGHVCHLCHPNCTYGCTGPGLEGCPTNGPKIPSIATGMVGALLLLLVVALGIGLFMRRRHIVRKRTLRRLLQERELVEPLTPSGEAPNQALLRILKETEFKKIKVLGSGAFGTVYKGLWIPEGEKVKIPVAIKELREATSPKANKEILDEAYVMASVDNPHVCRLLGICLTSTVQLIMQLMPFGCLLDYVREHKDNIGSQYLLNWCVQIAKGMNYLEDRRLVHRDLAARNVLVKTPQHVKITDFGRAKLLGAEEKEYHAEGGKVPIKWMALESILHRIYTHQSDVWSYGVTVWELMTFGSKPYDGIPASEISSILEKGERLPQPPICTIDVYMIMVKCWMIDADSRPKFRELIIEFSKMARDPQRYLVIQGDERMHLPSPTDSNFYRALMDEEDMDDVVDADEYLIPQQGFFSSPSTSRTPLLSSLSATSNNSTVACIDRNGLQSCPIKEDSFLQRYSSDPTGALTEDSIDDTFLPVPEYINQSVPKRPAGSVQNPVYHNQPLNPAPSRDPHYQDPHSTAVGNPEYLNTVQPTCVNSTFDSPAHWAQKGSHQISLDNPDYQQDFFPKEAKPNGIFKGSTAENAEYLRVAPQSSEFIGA
Sequence of EGFR (L858R) (P00533 25-1210 L858R): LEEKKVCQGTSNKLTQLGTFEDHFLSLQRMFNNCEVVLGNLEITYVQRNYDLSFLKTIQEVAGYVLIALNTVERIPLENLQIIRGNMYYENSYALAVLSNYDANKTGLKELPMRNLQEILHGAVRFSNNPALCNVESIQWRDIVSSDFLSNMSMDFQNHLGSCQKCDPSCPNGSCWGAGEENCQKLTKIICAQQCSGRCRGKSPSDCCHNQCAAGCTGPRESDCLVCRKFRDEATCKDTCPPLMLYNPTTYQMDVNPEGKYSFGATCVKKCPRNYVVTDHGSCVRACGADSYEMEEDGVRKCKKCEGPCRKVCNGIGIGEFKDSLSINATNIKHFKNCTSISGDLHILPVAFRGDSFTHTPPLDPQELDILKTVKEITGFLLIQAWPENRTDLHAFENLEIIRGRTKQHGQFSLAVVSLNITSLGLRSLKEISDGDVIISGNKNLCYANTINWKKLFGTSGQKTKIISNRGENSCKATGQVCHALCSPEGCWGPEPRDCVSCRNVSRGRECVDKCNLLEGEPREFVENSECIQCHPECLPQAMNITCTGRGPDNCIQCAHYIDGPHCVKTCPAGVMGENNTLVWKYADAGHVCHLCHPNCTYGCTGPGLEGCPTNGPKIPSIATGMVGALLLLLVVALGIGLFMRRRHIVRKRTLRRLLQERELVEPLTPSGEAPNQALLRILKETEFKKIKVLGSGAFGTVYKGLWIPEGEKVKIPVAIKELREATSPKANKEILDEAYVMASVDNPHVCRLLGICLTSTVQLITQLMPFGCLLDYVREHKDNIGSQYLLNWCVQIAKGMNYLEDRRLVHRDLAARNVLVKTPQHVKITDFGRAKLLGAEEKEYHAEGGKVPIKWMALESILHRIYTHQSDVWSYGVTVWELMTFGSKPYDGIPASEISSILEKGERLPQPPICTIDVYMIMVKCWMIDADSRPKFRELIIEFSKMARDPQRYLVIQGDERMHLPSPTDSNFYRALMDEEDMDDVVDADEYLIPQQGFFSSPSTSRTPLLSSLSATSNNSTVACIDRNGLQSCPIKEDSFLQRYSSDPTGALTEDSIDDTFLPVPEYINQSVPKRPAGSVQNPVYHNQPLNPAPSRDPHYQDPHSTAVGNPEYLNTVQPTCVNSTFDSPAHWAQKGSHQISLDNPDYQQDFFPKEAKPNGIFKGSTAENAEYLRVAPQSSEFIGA

Take `C=CC(=O)N1CCC[C@@H](n2nc(-c3ccc(Oc4ccc(F)cc4)cc3)c3c(N)ncnc32)C1` [Compound 17, (R)-1-(3-(4-amino-3-(4-(4-fluorophenoxy)phenyl)-1H-pyrazolo[3,4-d]pyrimidin-1-yl)piperidin-1-yl)prop-2-en-1-one]: the negative logarithm of the Kd (pKd) is > 8.00 on BTK, 7.27 on EGFR (L858R) and 6.57 at EGFR (L858R,T790M).

Take `C=CC(=O)N1CCC[C@@H](n2nc(-c3ccc(Oc4ccccc4)c(Cl)c3)c3c(N)ncnc32)C1` [Compound 18, (R)-1-(3-(4-amino-3-(3-chloro-4-phenoxyphenyl)-1H-pyrazolo[3,4-d]pyrimidin-1-yl)piperidin-1-yl)prop-2-en-1-one]: the pKd on BTK was > 8.00; at EGFR (L858R), 8.20; at EGFR (L858R,T790M), 8.03. The compound further showed a pIC50 in test [1] of 6.31.

As for `C=CC(=O)N1CCC[C@@H](n2nc(-c3ccc(Oc4ccccc4)cc3)c3c(N)ncnc32)C1` [Ibrutinib, reference compound], the pIC50 in test [1] is < 5.70.

Values taken from patent publication US9694011B2, “Substituted pyrazolopyrimidines as kinases inhibitors” (JIANGSU MEDOLUTION LTD, priority 2013, dated 2017).
